Tested on: RGC-5
Test: Hoechst 33342 and PI staining after TNF-α
Format: cell-based, rat
Method: The RGC-5 cell line, which is an RGC line developed from post-natal Sprague-Dawley rats, was grown in modified DMEM (Gibco) supplemented with 10% of heat inactivated fetal bovine serum (Gibco) and 100 U/mL of penicillin and 100 μg/mL of streptomycin (Gibco). The cells were passaged every 2 to 3 days and incubated at 37° C. in 5% of CO2 and air. At cultivation, the cells had the same morphology. For all experiments, cells were used at 80% of confluence.
After washing twice with PBS, cells were cultured in serum-free DMEM and treated with either 10 or 50 ng/mL of recombinant rat TNF-α (Chemicon) for up to 48 hours. The control cells were not exposed to TNF-α. 100 μM of agmatine was added to the culture medium at the start of injury as indicated.
Apoptotic or necrotic cell death was characterized by double staining cells with Hoechst 33342 and PI. Cells were stained with 10 μg/mL of Hoechst 33342 and 10 μg/mL of PI at 37° C. for 30 minutes. After being washed twice with PBS, cells were imaged with a digital camera attached to a fluorescence microscope.

N=C(N)NCCCCN [agmatine]
RGC loss (Hoechst-positive / PI-positive cells) (50 ng/mL of TNF-α for 48 hours, 100 μM of agmatine): RGC loss was prevented | effect on culture (Hoechst-positive / PI-labeled cells) (only 100 μM of agmatine, no TNF-α, 48 hours): did not have a significant effect

From patent publication US8084502B2, “Use of agmatine for protection of retinal ganglion cells” (priority 2007, dated 2011)
